Experimental data taken from patent publication US12129246B1, “Hydroquinazoline derivatives for the treatment of a disease or disorder” (Novartis AG, priority 2023, dated 2024).
Like-named read-outs stand apart in the source and are kept apart here.

Columns and labels:
human NPR1 = target: T1, human NPR1 (Homo sapiens, UniProt P16066); test: Cellular cGMP production assay, human NPR1 expressing CHO-K1 cells (CisBio HTRF); assay type: cell-based; conditions: for AC50: cGMP production, 30 min at 37° C., 12-point dose-response from 30 μM; for Human NPR1 Amax (% of ANP): maximum cGMP production as percentage of the maximum cGMP produced with ANP
T1 construct: host or cells: CHO-K1
T1 sequence (P16066 33-1061): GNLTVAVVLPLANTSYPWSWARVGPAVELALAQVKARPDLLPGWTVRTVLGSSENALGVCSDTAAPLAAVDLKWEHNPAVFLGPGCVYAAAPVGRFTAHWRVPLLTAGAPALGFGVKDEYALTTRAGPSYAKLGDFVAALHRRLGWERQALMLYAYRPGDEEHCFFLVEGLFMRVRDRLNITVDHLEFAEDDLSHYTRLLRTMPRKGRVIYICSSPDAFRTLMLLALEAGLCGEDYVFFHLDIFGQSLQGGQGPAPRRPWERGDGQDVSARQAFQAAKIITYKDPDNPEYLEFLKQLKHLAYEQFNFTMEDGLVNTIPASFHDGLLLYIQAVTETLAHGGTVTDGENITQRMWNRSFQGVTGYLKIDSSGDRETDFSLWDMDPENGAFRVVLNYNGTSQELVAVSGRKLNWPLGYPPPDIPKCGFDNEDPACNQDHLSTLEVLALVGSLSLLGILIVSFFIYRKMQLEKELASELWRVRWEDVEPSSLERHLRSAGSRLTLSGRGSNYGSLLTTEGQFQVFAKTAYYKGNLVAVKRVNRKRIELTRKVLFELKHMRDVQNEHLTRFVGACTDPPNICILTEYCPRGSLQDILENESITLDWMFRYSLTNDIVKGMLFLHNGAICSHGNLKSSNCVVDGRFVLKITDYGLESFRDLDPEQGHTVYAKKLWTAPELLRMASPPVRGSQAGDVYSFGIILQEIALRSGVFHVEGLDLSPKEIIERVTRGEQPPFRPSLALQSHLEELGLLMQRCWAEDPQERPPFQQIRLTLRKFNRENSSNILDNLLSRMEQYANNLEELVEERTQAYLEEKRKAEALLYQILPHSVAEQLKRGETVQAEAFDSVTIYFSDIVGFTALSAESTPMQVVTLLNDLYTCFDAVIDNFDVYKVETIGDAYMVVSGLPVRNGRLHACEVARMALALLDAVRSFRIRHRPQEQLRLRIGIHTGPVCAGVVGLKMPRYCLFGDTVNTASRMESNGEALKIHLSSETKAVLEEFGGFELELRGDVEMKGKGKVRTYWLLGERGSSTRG
Procedure: (§1) Cellular cGMP is a major second messenger that mediates cell activities and is synthesized by activated NPR1 triggered by binding of the natural ligand ANP. […] The assay was performed according to manufacturer's instructions with minor deviations. […] All compound stocks were diluted in PBS+0.1% BSA at 2-fold the final assay concentration. After addition of 10 μL/well of assay buffer (PBS+0.1% BSA+1 mM IBMX) and 10 μL/well of the compounds in different concentrations (12-point dose-response with 3-fold dilutions from a top concentration of 30 μM), the plate was incubated for 30 min at 37° C. to allow for cGMP production. In parallel, a standard curve using a calibrator (contained in the kit) was generated. The cells were lysed and a mix of cGMP-d2 and anti-cGMP-cryptate was added and incubated for 1 h at room temperature. The readout was performed using an Envision plate reader (PerkinElmer) with an excitation wavelength of 317 nm and an emission wavelength of 665 nm. cGMP concentration (Delta F [° %]) was calculated according to the following formulae: […]

monkey NPR1 = monkey NPR1 (Macaca fascicularis, UniProt A0A7N9DBT9); test: Cellular cGMP production assay, monkey NPR1 expressing CHO-K1 cells (CisBio HTRF); assay type: cell-based; conditions: for Monkey NPR1 Amax (% of ANP): maximum cGMP production as percentage of the maximum cGMP produced with ANP
Procedure: as §1

[1] = cGMP production, monkey NPR1 CHO-K1 cells, 30 min at 37° C., 12-point dose-response from 30 μM, read-out: Monkey NPR1 AC50

monkey NPR1, sequence (A0A7N9DBT9 entry or part of it): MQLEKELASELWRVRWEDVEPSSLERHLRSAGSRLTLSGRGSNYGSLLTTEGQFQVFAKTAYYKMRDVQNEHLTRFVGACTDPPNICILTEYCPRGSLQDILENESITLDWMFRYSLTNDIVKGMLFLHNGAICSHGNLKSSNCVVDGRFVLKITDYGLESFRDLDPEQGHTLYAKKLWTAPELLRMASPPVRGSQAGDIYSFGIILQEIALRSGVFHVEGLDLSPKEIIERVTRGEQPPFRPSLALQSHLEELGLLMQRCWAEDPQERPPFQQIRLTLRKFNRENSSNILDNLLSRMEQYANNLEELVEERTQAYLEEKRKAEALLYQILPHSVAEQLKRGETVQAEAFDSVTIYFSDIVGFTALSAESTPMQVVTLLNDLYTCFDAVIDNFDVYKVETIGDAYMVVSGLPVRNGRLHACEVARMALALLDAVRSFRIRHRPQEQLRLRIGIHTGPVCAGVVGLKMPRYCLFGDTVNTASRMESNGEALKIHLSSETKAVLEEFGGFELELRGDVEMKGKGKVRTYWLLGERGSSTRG

Row | SMILES | AC50 (human NPR1) [µM] | Human NPR1 Amax (% of ANP) (human NPR1) | AC50 (monkey NPR1; [1]) [µM] | Monkey NPR1 Amax (% of ANP) (monkey NPR1; monkey NPR1 CHO-K1 cells) | AC50 (monkey NPR1) [µM]
1 | CC[C@H]([C@H]1CC[C@H](C(=O)O)CC1)N(C)c1nc2c(c(N[C@@H](CN3CCC[C@H](CO)C3)c3cnn(C)c3)n1)C[C@H](c1cccc(F)c1)CC2 [Compound 72, (1R,4r)-4-((R)-1-(((R)-6-(3-fluorophenyl)-4-(((R)-2-((S)-3-(hydroxymethyl)piperidin-1-yl)-1-(1-methyl-1H-pyrazol-4-yl)ethyl)amino)-5,6,7,8-tetrahydroquinazolin-2-yl)(methyl)amino)propyl)cyclohexane-1-carboxylic acid] | 0.242 | 99.718 % of ANP | 0.137 | 104.824 % of ANP | 
2 | CC[C@@H](Nc1nc2c(c(N[C@@H](CN3CCC[C@H](C)C3)c3scnc3C)n1)C[C@H](c1ccccc1)CC2)[C@H]1CC[C@H](C(=O)O)CC1 [Compound 73, (1R,4r)-4-((R)-1-(((R)-4-(((S)-2-((S)-3-methylpiperidin-1-yl)-1-(4-methylthiazol-5-yl)ethyl)amino)-6-phenyl-5,6,7,8-tetrahydroquinazolin-2-yl)amino)propyl)cyclohexane-1-carboxylic acid] | 0.245 | 94.290 % of ANP | 0.172 | 99.527 % of ANP | 
3 | CC[C@@H](Nc1nc2c(c(N[C@@H](CN3C4CCCC3CCC4)c3cnn(C)c3)n1)C[C@H](c1ccccc1)CC2)[C@H]1CC[C@H](C(=O)O)CC1 [Compound 59, (1R,4r)-4-((R)-1-(((R)-4-(((R)-2-((1S,5S)-9-azabicyclo[3.3.1]nonan-9-yl)-1-(1-methyl-1H-pyrazol-4-yl)ethyl)amino)-6-phenyl-5,6,7,8-tetrahydroquinazolin-2-yl)amino)propyl)cyclohexane-1-carboxylic acid] | 0.205 | 99.614 % of ANP |  | 104.401 % of ANP | 0.153
4 | CC[C@@H](Nc1nc2c(c(N[C@@H](CN3CCCCC3)c3cnn(CC)c3)n1)C[C@@H](c1cccc(F)c1)CC2)[C@H]1CC[C@H](C(=O)O)CC1 [Compound 50, (1R,4r)-4-((R)-1-(((S)-4-(((R)-1-(1-ethyl-1H-pyrazol-4-yl)-2-(piperidin-1-yl)ethyl)amino)-6-(3-fluorophenyl)-5,6,7,8-tetrahydroquinazolin-2-yl)amino)propyl)cyclohexane-1-carboxylic acid] | 0.187 | 93.357 % of ANP | 0.135 | 107.881 % of ANP | 
5 | CC[C@H]([C@H]1CC[C@H](C(=O)O)CC1)N(C)c1nc2c(c(N[C@@H](CN3C4CCC3CC4)c3cnn(C)c3)n1)C[C@](C)(c1ccccc1)CC2 [Compound 70, (1R,4r)-4-((R)-1-(((R)-4-(((R)-2-(7-azabicyclo[2.2.1]heptan-7-yl)-1-(1-methyl-1H-pyrazol-4-yl)ethyl)amino)-6-methyl-6-phenyl-5,6,7,8-tetrahydroquinazolin-2-yl)(methyl)amino)propyl)cyclohexane-1-carboxylic acid] | 0.234 | 97.399 % of ANP |  | 100.673 % of ANP | 0.23
6 | CC[C@@H](Nc1nc2c(c(N[C@@H](CN3CCCCC3)c3cnn(C)c3)n1)CN(c1cccc(F)c1)CC2)[C@H]1CC[C@H](C(=O)O)CC1 [Compound 55] | 0.194 | 92.712 % of ANP | 0.142 | 93.391 % of ANP | 
7 | CC[C@@H](N(C)c1nc2c(c(N[C@@H](CN3CCC[C@H](CF)C3)c3cnn(C)c3)n1)C[C@](C)(c1ccccc1)CC2)C12CC(C(=O)O)(C1)C2 [Compound 12, 3-((R)-1-(((R)-4-(((R)-2-((S)-3-(fluoromethyl)piperidin-1-yl)-1-(1-methyl-1H-pyrazol-4-yl)ethyl)amino)-6-methyl-6-phenyl-5,6,7,8-tetrahydroquinazolin-2-yl)(methyl)amino)propyl)bicyclo[1.1.1]pentane-1-carboxylic acid] | 0.094 | 96.068 % of ANP | 0.073 | 95.099 % of ANP | 
8 | CC[C@@H](Nc1nc2c(c(N[C@@H](CN3CCC[C@H](C)C3)c3cnn(C)c3)n1)C[C@](C)(c1cccc(F)c1)CC2)[C@H]1CC[C@H](C(=O)O)CC1 [Compound 2, (1R,4r)-4-((R)-1-(((R)-6-(3-fluorophenyl)-6-methyl-4-(((R)-1-(1-methyl-1H-pyrazol-4-yl)-2-((S)-3-methylpiperidin-1-yl)ethyl)amino)-5,6,7,8-tetrahydroquinazolin-2-yl)amino)propyl)cyclohexane-1-carboxylic acid] | 0.042 | 96.935 % of ANP | 0.044 | 103.371 % of ANP | 
9 | CC[C@H]([C@H]1CC[C@H](C(=O)O)CC1)N(C)c1nc2c(c(N[C@@H](CN3CCC[C@H](O)C3)c3cnn(CC)c3)n1)C[C@H](c1cccc(F)c1)CC2 [Compound 163, (1R,4r)-4-((R)-1-(((R)-4-(((R)-1-(1-ethyl-1H-pyrazol-4-yl)-2-((S)-3-hydroxypiperidin-1-yl)ethyl)amino)-6-(3-fluorophenyl)-5,6,7,8-tetrahydroquinazolin-2-yl)(methyl)amino)propyl)cyclohexane-1-carboxylic acid] | 1.71 | 103.903 % of ANP | 1.27 | 102.145 % of ANP | 
10 | CC[C@@H](Nc1nc2c(c(N[C@@H](CN3C[C@H](C)C[C@H](C)C3)c3cnn(C)c3)n1)C[C@H](c1ccccc1)CC2)[C@H]1CC[C@H](C(=O)O)CC1 [Compound 61, (1R,4r)-4-((R)-1-(((R)-4-(((R)-2-((3S,5R)-3,5-dimethylpiperidin-1-yl)-1-(1-methyl-1H-pyrazol-4-yl)ethyl)amino)-6-phenyl-5,6,7,8-tetrahydroquinazolin-2-yl)amino)propyl)cyclohexane-1-carboxylic acid] | 0.207 | 104.236 % of ANP | 0.122 | 102.127 % of ANP | 
11 | CC[C@H]([C@H]1CC[C@H](C(=O)O)CC1)N(C)c1nc2c(c(N[C@@H](CN3CCCC3)c3ccccc3)n1)C[C@H](c1ccccc1)CC2 [Compound 146, (1R,4r)-4-((R)-1-(methyl((R)-6-phenyl-4-(((R)-1-phenyl-2-(pyrrolidin-1-yl)ethyl)amino)-5,6,7,8-tetrahydroquinazolin-2-yl)amino)propyl)cyclohexane-1-carboxylic acid] | 1.07 | 104.657 % of ANP | 0.702 | 96.864 % of ANP | 
12 | CC[C@H]([C@H]1CC[C@H](C(=O)O)CC1)N(C)c1nc2c(c(N[C@@H](CN3CCC[C@H](C)C3)c3ccc(=O)n(C)c3)n1)C[C@H](c1cccc(F)c1)CC2 [Compound 53, (1R,4r)-4-((R)-1-(((R)-6-(3-fluorophenyl)-4-(((R)-1-(1-methyl-6-oxo-1,6-dihydropyridin-3-yl)-2-((S)-3-methylpiperidin-1-yl)ethyl)amino)-5,6,7,8-tetrahydroquinazolin-2-yl)(methyl)amino)propyl)cyclohexane-1-carboxylic acid] | 0.19 | 101.185 % of ANP | 0.101 | 101.261 % of ANP | 
